Results published in US12655139B2, “Isoxazolidines as RIPK1 inhibitors and use thereof” (SANOFI, priority 2020, dated 2026).
pIC50: −log10 of the molar value. Counter-ions that a name gives are not always drawn. Like-named read-outs stand apart in the source and are kept apart here.

System: U937 cells
Assay: Cellular assay in U937 cells on cell death (necroptosis), TNFα/zVAD.fmk
Format: cell-based
Details: Homo sapiens; for pIC50: U-937, Table 2, read-out: U937 IC50; for IC50: U-937, Comparator table 5, read-out: U937 IC50 (uM) Mean
Description: Cellular Assay in U937 Cells to Measure the Activity of RIPK1-Inhibitors on Cell Death (Necroptosis).
Cell death was quantified in 96 well plates by determination of the amount of live cell using a CellTiter 96 AQueous reagent (Promega), a calorimetric method to measure the amount of live cells by reducing tetrazolium compound [3-(4,5-dimethylthiazol-2-yl)-5-(3-carboxymethoxyphenyl)-2-(4-sulfophenyl)-2H-tetrazolium, inner salt; MTS] into formazan. Absorbance of formazan was read at 490 nm. The inhibitory activity of the test compound was quantified in a concentration response curve (CRC) experiment. Compounds were obtained as 10 mM stock solutions and were diluted 1 to 10 volumes with DMSO to yield a 1 mM solution. From this solution 2 μl were diluted with 998 μl growth medium. 100 μl of 2 μM compound solution was further diluted sequentially with a dilution factor of 2.5 by adding 150 μl growth medium. A total of 10 concentrations were tested ranging from 10 μM to 0.26 nM or from 1 μM to 0.07 nM.
U937 cells were cultured in RPMI1640 Glutamax and 10% heat inactivated FBS. 50 μl cell suspension containing 1×10^6 cells/ml supplemented with 50 μM zVAD.fmk (Benzyloxycarbonyl-Val-Ala-Asp (OMe) fluoromethylketone) and 100 ng/ml recombinant human TNFα were dispensed in each well of a 96-well plate. 50 μl of compound dilutions (see above) were added and the cell suspension incubated overnight (18 to 24 hours) at 37° C., 5% CO2 in a humidified atmosphere (95% rH). High (no compound) and low control (no TNFα, zVAD.fmk) were tested with 7 replicates; all compound concentrations were tested in duplicates on each experimental plate.
CellTiter 96 Aqueous reagent was mixed (100 μl PMS (phenazine methosulfate) solution/2 ml MTS (3-(4,5-[…])-5-(3-carboxymethoxyphenyl)-2-(4-sulfophenyl)-2H-tetrazolium, inner salt) solution) and 20 μl were added per well. After 4 hours incubation at 37° C. (5% CO2 95% rH) optical density was measured at 490 nm on a microplate reader (Tecan Infinite M1000).
The % inhibition is expressed as percentage of the maximal inhibition value obtained in the absence of TNFα/zVAD.fmc.

Structure (SMILES) | pIC50 | IC50 [µM]
Cn1ccc(C2CCON2C(=O)C2CCN(c3nccc(C(N)=O)n3)CC2)n1 (racemic) [Ex. 002*] | 5.74 | –
NC(=O)c1ccnc(N2CCC(C(=O)N3OCCC3c3ccc4nccn4c3)CC2)n1 (racemic) [Ex. 012*] | 5.14 | –
NC(=O)c1cncc(C2CCON2C(=O)C2CCN(c3nccc(C(N)=O)n3)CC2)c1 (racemic) [Ex. 029*] | 5.66 | –
CNC(=O)c1cncc(C2CCON2C(=O)C2CCN(c3nccc(C(N)=O)n3)CC2)c1 (racemic) [Ex. 040*] | < 5.00 | –
Cc1nnc(C2CCON2C(=O)C2CCN(c3nccc(C(N)=O)n3)CC2)s1 (racemic) [Ex. 089*] | 5.67 | –
Cn1ccc(C2CCON2C(=O)C2CCN(c3cc(C#N)ncn3)CC2)n1 (racemic) [Example 006, 6-[4-[3-(1-methylpyrazol-3-yl)isoxazolidine-2-carbonyl]-1-piperidyl]pyrimidine 4-carbonitrile] | 5.25 | –
Cn1ccc(C2CCON2C(=O)C2CCN(c3cc(C(N)=O)ncn3)CC2)n1 (racemic) [Example 008, 6-[4-[3-(1-methylpyrazol-3-yl)isoxazolidine-2-carbonyl]-1-piperidyl] pyrimidine-4-carboxamide TFA salt] | 5.28 | –
CNC(=O)c1cncc(C2CCON2C(=O)C2CCN(c3cc(C(N)=O)ncn3)CC2)c1 (racemic) [Example 041] | < 5.00 | –
NC(=O)c1ccnc(N2CCC(C(=O)N3OCC[C@H]3c3cc(F)cc(F)c3)CC2)n1 [E, reference compound] | – | 0.002
NC(=O)c1ccnc(N2CCC(C(=O)N3OCC[C@H]3c3cncnc3)CC2)n1 [Ex. 003] | 6.54 | –
N#Cc1cncc([C@@H]2CCON2C(=O)C2CCN(c3cc(C#N)ncn3)CC2)c1 [Ex. 005] | 6.94 | –
N#Cc1cncc([C@@H]2CCON2C(=O)C2CCN(c3cc(C#N)ccn3)CC2)c1 [Ex. 017] | 6.46 | –
CC1(C(=O)N2OCC[C@H]2c2cncc(C#N)c2)CCN(c2ncc(F)c(OCC#N)n2)CC1 [Ex. 018] | 7.99 | –
NC(=O)c1ccnc(N2CCC(C(=O)N3OCCC3c3ccc(O)nc3)CC2)n1 (centres unmarked) [Ex. 022] | < 5.00 | –
CCOC(=O)COc1nc(N2CCC(C(=O)N3OCC[C@H]3c3cncc(C#N)c3)CC2)ncc1F [Ex. 027, Ethyl 2-[2-[4-[(3S)-3-(5-cyano-3-pyridyl)isoxazolidine-2-carbonyl]-1-piperidyl]-5-fluoro-pyrimidin-4-yl]oxyacetate] | 6.28 | –
CC(=O)Nc1cncc([C@@H]2CCON2C(=O)C2CCN(c3nccc(C(N)=O)n3)CC2)c1 [Ex. 043] | 5.57 | –
NC(=O)c1ccnc(N2CCC(C(=O)N3OCC[C@H]3c3cncc(N4CCCC4=O)c3)CC2)n1 [Ex. 060] | 5.14 | –
CC1(C(=O)N2OCC[C@H]2c2cncnc2)CCN(c2ncc(F)c(OCC#N)n2)CC1 [Ex. 062] | 7.91 | –
N#CCOc1nc(N2CCC(C(=O)N3OCC[C@H]3c3cncnc3)CC2)ncc1F [Ex. 063] | 7.82 | –
NC(=O)c1ccnc(N2CCC(C(=O)N3OCC[C@H]3c3cnccn3)CC2)n1 [Ex. 074] | 8.01 | –
CCN1CCC(CNC(=O)c2ccnc(N3CCC(C(=O)N4OCC[C@H]4c4cncc(C#N)c4)CC3)n2)CC1 [Ex. 079] | 5.78 | –

Structure (SMILES) | pIC50 | IC50 [µM]
Cc1cncc([C@@H]2CCON2C(=O)C2CCN(c3ncc(F)c(C(N)=O)n3)CC2)n1 [Ex. 082] | 8.49 | –
NC(=O)c1nc(N2CCC(C(=O)N3OCC[C@H]3c3ccc(Cl)cn3)CC2)ncc1F [Ex. 084] | 7.75 | –
N#Cc1cncc([C@@H]2CCON2C(=O)C2CCN(c3nccc(C(=O)NC4CNC4)n3)CC2)c1 [Ex. 086, N-(Azetidin-3-yl)-2-[4-[(3S)-3-(5-cyano-3-pyridyl)isoxazolidine-2-carbonyl]-1-piperidyl]pyrimidine-4-carboxamide TFA salt] | 5.06 | –
NC(=O)c1cncc([C@@H]2CCON2C(=O)C2CCN(c3ncc(F)c(C(N)=O)n3)CC2)c1 [Ex. 101] | 6.35 | –
N#Cc1cncc([C@@H]2CCON2C(=O)C2CCN(c3nccc(C(N)=O)n3)CC2)n1 [Ex. 118] | 8.12 | –
N#Cc1cncc([C@@H]2CCON2C(=O)C2CCN(c3nccc(Br)n3)CC2)c1 [Ex. 161] | 7.70 | –
COc1cncc([C@@H]2CCON2C(=O)C2CCN(c3ncc(F)c(C(N)=O)n3)CC2)n1 [Ex. 177] | 8.23 | –
N#Cc1nc([C@@H]2CCON2C(=O)C2CCN(c3nccc(C(N)=O)n3)CC2)cs1 [Ex. 188] | 6.69 | –
CC(C)(C)OC(=O)N1CC[C@@H](C(=O)N2OCC[C@H]2c2cncc(F)c2)[C@@H](F)C1 [F, reference compound] | – | > 10
N#Cc1ccc([C@@H]2CCON2C(=O)C2CCN(c3ncc(F)c(C#N)n3)CC2)nc1 [compound 112, 2-[4-[(3S)-3-(5-cyano-2-pyridyl)isoxazolidine-2-carbonyl]-1-piperidyl]-5-fluoro-pyrimidine-4-carbonitrile] | 7.12 | –
COc1nc(N2CCC(C(=O)N3OCC[C@H]3c3ccc(C#N)cn3)CC2)ncc1F [compound 117] | 7.16 | –
N#Cc1cncc([C@@H]2CCON2C(=O)C2CCN(c3ncc(F)c(O)n3)CC2)c1 [compound 125, 5-[(3S)-2-[1-(5-fluoro-4-hydroxy-pyrimidin-2-yl)piperidine-4-carbonyl]isoxazolidin-3-yl]pyridine-3-carbonitrile] | 5.06 | –
Cc1ccc([C@@H]2CCON2C(=O)C2CCN(c3cc(C#N)ncn3)CC2)cn1 [compound 128, (S)-6-(4-(3-(6-methylpyridin-3-yl)isoxazolidine-2-carbonyl)piperidin-1-yl)pyrimidine-4-carbonitrile] | 6.65 | –
Cc1cncc([C@@H]2CCON2C(=O)C2CCN(c3nccc(C(N)=O)n3)CC2)c1 [compound 132, (S)-2-(4-(3-(5-methylpyridin-3-yl)isoxazolidine-2-carbonyl)piperidin-1-yl)pyrimidine-4-carboxamide] | 7.50 | –
Cc1ccc([C@@H]2CCON2C(=O)C2CCN(c3cc(C(N)=O)ncn3)CC2)cn1 [compound 135, (S)-6-(4-(3-(6-methylpyridin-3-yl)isoxazolidine-2-carbonyl)piperidin-1-yl)pyrimidine-4-carboxamide] | 6.31 | –
Cc1ncc([C@@H]2CCON2C(=O)C2CCN(c3nccc(C#N)n3)CC2)cc1F [compound 136, (S)-2-(4-(3-(5-fluoro-6-methylpyridin-3-yl)isoxazolidine-2-carbonyl)piperidin-1-yl)pyrimidine-4-carbonitrile] | 7.69 | –
N#Cc1cncc([C@@H]2CCON2C(=O)C2CCN(c3ccnc(N)n3)CC2)c1 [compound 148, 5-[(3S)-2-[1-(2-aminopyrimidin-4-yl)piperidine-4-carbonyl]isoxazolidin-3-yl]pyridine-3-carbonitrile] | 5.66 | –
O=C(C1CCN(c2ncnc(Cl)n2)CC1)N1OCC[C@H]1c1cnccn1 [compound 174, [1-(4-chloro-1,3,5-triazin-2-yl)-4-piperidyl]-[(3S)-3-pyrazin-2-ylisoxazolidin-2-yl]methanone] | 5.52 | –
COc1nc(Cl)nc(N2CCC(C(=O)N3OCC[C@H]3c3cnccn3)CC2)n1 [compound 181, [1-(4-chloro-6-methoxy-1,3,5-triazin-2-yl)-4-piperidyl]-[(3S)-3-pyrazin-2-ylisoxazolidin-2-yl]methanone] | 7.52 | –
Cc1ccc([C@@H]2CCON2C(=O)C2CCN(c3ncc(F)c(C(N)=O)n3)CC2)s1 [compound 183, 5-fluoro-2-[4-[(3S)-3-(5-methyl-2-thienyl)isoxazolidine-2-carbonyl]-1-piperidyl]pyrimidine-4-carboxamide] | 9.17 | –
